IC50 data for 35 molecules are collected here from US9000025B2, “Autotaxin inhibitors and uses thereof” (Amira Pharmaceuticals, Inc., priority 2010, dated 2015).

The term IC50 denotes the concentration that gives 50% inhibition.

This assay has as its target T1, autotaxin (ATX) (Homo sapiens, UniProt Q13822).
T1 construct: conditioned medium from the human melanoma cell line, MDA-MB-4355, which endogenously expresses autotaxin; host or cells: MDA-MB-435S human melanoma cells; serum-free conditioned medium, concentrated 20-fold
In words: Native Autotaxin Choline Release Assay. Format: biochemical. The note with it: autotaxin in conditioned medium from human melanoma cell line; choline released from LPC; read-out: MDA-MB-435S Assay IC50. The protocol:
ATX activity is determined by measuring the amount of choline realeased from the substrate, lyosphophatidylcholine (LPC). […] After reaching confluency, the cells are washed twice with phosphate-buffered saline (PBS) then cultured for 48 hours in phenol-red free, serum-free DMEM containing sodium pyruvate. […] 100 μl of a color mix which contains 4.5 mM 4-aminoantipyrine, 2.7 mM N-ethyl-N-(2-hydroxy-3-sulfopropyl)-m-toluidine, 21 units/ml horseradish peroxidase and 3 units/ml choline oxidase in 50 mM Tris, pH 8, 4.5 mM MgCl2 is added and the incubation continued at 37° C. for 10 minutes before reading the absorbance at 555 nm. The concentration of released choline in the sample is determined from a choline standard curve and is equal to the concentration of LPA produced.
As for `Cc1c(Sc2cccc(CC(=O)O)c2)c2ccc(Cl)cc2n1CC(C)C` [Compound 1-7, [3-(6-Chloro-1-isobutyl-2-methyl-1H-indol-3-ylsulfanyl)-phenyl]-acetic acid], the IC50 was greater than 1000 nM.

In the case of `CCCn1cc(-n2c(C)c(Sc3ccc(OC)c(C(=O)O)c3)c3ccc(Cl)c(F)c32)cn1` [Compound 4-10, 5-[6-Chloro-7-fluoro-2-methyl-1-(1-propyl-1H-pyrazol-4-yl)-1H-indol-3-ylsulfanyl]-2-methoxy-benzoic acid], the IC50 was less than 300 nM.

With `Cc1c(Sc2cccc(C(=O)O)c2)c2ccc(-c3ccccc3)cc2n1Cc1ccccc1` [Compound 1-11, 3-(1-Benzyl-2-methyl-6-phenyl-1H-indol-3-ylsulfanyl)-benzoic acid], the IC50 is greater than 1000 nM.

Consider `Cc1ccc(-n2c(C)c(Sc3cccc(C(=O)O)c3)c3ccc(Cl)c(F)c32)s1` [Compound 3-62, 3-[6-Chloro-7-fluoro-2-methyl-1-(5-methyl-thiophen-2-yl)-1H-indol-3-ylsulfanyl]-benzoic acid], for which the IC50 lay in the range of 300 to 1000 nM.

Consider `CCCn1cc(-n2c(C)c(Sc3cccc(C(=O)O)c3)c3ccc(Cl)cc32)cn1` [Compound 1-57, 3-[6-Chloro-2-methyl-1-(1-propyl-1H-pyrazol-4-yl)-1H-indol-3-ylsulfanyl]-benzoic acid], for which the IC50 was less than 300 nM.

As to `CCn1cc(-n2c(C)c(Sc3cc(C)cc(C(=O)O)c3)c3ccc(Cl)cc32)cn1` [Compound 1-52, 3-[6-Chloro-1-(1-ethyl-1H-pyrazol-4-yl)-2-methyl-1H-indol-3-ylsulfanyl]-5-methyl-benzoic acid], the IC50 was greater than 1000 nM.

Regarding `Cc1c(Sc2cccc(C(=O)O)c2)c2ccc(Cl)cc2n1Cc1ccncc1` [Compound 1-23, 3-(6-Chloro-2-methyl-1-pyridin-4-ylmethyl-1H-indol-3-ylsulfanyl)-benzoic acid], the IC50 is less than 300 nM.

`Cc1c(Sc2cccc(C(=O)O)c2)c2ccc(Cl)cc2n1-c1cnn(C(C)C)c1` [Compound 1-44, 3-[6-Chloro-1-(1-isopropyl-1H-pyrazol-4-yl)-2-methyl-1H-indol-3-ylsulfanyl]-benzoic acid]: the IC50 was less than 300 nM.

Consider `CCn1cc(-n2c(C)c(Sc3cccc(C(=O)O)c3OC)c3ccc(Cl)cc32)cn1` [Compound 1-62, 3-[6-Chloro-2-methyl-1-(1-ethyl-1H-pyrazol-4-yl)-1H-indol-3-ylsulfanyl]-2-methoxy-benzoic acid], for which the IC50 was less than 300 nM.

On to `CCn1cc(-n2c(C)c(Sc3cc(Br)cc(C(=O)O)c3)c3ccc(Cl)cc32)cn1` [Compound 1-51, 3-Bromo-5-[6-chloro-1-(1-ethyl-1H-pyrazol-4-yl)-2-methyl-1H-indol-3-ylsulfanyl]-benzoic acid], for which the IC50 was greater than 1000 nM.

Turning to `CCn1cc(-n2c(C)c(Sc3cccc(CC(=O)O)c3)c3ccc(Cl)cc32)cn1` [Compound 1-69, {3-[6-Chloro-1-(1-ethyl-1H-pyrazol-4-yl)-2-methyl-1H-indol-3-ylsulfanyl]-phenyl}-acetic acid], the IC50 was less than 300 nM.

Consider `Cc1[nH]c2c(Cl)cccc2c1Sc1cccc(CC(=O)O)c1` [Compound 3-4, [3-(7-Chloro-2-methyl-1H-indol-3-ylsulfanyl)-phenyl]-acetic acid], for which the IC50 is greater than 1000 nM.

Regarding `CCn1cc(-n2c(C)c(Sc3cccc(C(=O)O)c3C)c3ccc(Cl)cc32)cn1` [Compound 1-64, 3-[6-Chloro-2-methyl-1-(1-ethyl-1H-pyrazol-4-yl)-1H-indol-3-ylsulfanyl]-2-methyl-benzoic acid], the IC50 was less than 300 nM.

Regarding `Cc1ccc(-n2c(C)c(Sc3cccc(C(=O)O)c3)c3ccc(Cl)cc32)nn1` [Compound 1-68, 3-[6-Chloro-2-methyl-1-(6-methyl-pyridazin-3-yl)-1H-indol-3-ylsulfanyl]-benzoic acid], the IC50 fell in the range of 300 to 1000 nM.

In the case of `Cc1ccc(-n2cc(-n3c(C)c(Sc4cccc(C(=O)O)c4)c4ccc(Cl)cc43)cn2)cc1` [Compound 1-130, 3-[6-Chloro-2-methyl-1-(1-p-tolyl-1H-pyrazol-4-yl)-1H-indol-3-ylsulfanyl]-benzoic acid], the IC50 was less than 300 nM.

As for `CCn1cc(-n2c(C)c(Sc3ccc(CC(=O)O)cc3)c3ccc(Cl)cc32)cn1` [Compound 3-30, {4-[6-Chloro-1-(1-ethyl-1H-pyrazol-4-yl)-2-methyl-1H-indol-3-ylsulfanyl]-phenyl}-acetic acid], the IC50 is less than 300 nM.

With `Cc1c(Sc2cccc(C(=O)O)c2)c2ccc(Cl)c(F)c2n1-c1cnn(C2CCC2)c1` [Compound 3-36, 3-[6-Chloro-1-(1-cyclobutyl-1H-pyrazol-4-yl)-7-fluoro-2-methyl-1H-indol-3-ylsulfanyl]-benzoic acid], the IC50 was less than 300 nM.

As for `CCn1cc(-n2c(C)c(Sc3cccc(C4(C(=O)O)CC4)c3)c3ccc(Cl)cc32)cn1` [Compound 1-74, 1-{3-[6-Chloro-1-(1-ethyl-1H-pyrazol-4-yl)-2-methyl-1H-indol-3-ylsulfanyl]-phenyl}-cyclopropanecarboxylic acid], the IC50 is less than 300 nM.

As for `CCC(C(=O)O)c1cccc(Sc2c(C)n(-c3cccnc3)c3cc(Cl)ccc23)c1` (centres unmarked) [Compound 1-49, 2-[3-(6-Chloro-2-methyl-1-pyridin-3-yl-1H-indol-3-ylsulfanyl)-phenyl]-butyric acid], the IC50 is less than 300 nM.

Regarding `Cc1c(Sc2cccc(CC(=O)O)c2)c2ccc(Cl)cc2n1Cc1ccccc1` [Compound 1-14, [3-(1-Benzyl-6-chloro-2-methyl-1H-indol-3-ylsulfanyl)-phenyl]-acetic acid], the IC50 was greater than 1000 nM.

On to `COc1c(C)cnc(Cn2c(C)c(Sc3cccc(C(=O)O)c3)c3ccc(Cl)cc32)c1C` [Compound 1-25, 3-[6-Chloro-1-(4-methoxy-3,5-dimethyl-pyridin-2-ylmethyl)-2-methyl-1H-indol-3-ylsulfanyl]-benzoic acid], for which the IC50 was less than 300 nM.

For the molecule `Cc1[nH]c2ccccc2c1Sc1cccc(CC(=O)O)c1` [Compound 1-1, [3-(2-Methyl-1H-indol-3-ylsulfanyl)-phenyl]-acetic acid], the IC50 was greater than 1000 nM.

As for `Cc1c(Sc2cccc(C(=O)O)c2)c2ccc(Cl)cc2n1-c1cncnc1` [Compound 1-38, 3-(6-Chloro-2-methyl-1-pyrimidin-5-yl-1H-indol-3-ylsulfanyl)-benzoic acid], the IC50 is less than 300 nM.

On to `Cc1ccc(C(=O)O)cc1Sc1c(C)n(-c2cccnc2)c2cc(Cl)ccc12` [Compound 1-54, 3-(6-Chloro-2-methyl-1-pyridin-3-yl-1H-indol-3-ylsulfanyl)-4-methyl-benzoic acid], for which the IC50 was greater than 1000 nM.

For `Cc1c(Sc2cccc(C(=O)O)c2)c2ccc(Cl)cc2n1-c1cnn(C)c1` [Compound 1-39, 3-[6-Chloro-2-methyl-1-(1-methyl-1H-pyrazol-4-yl)-1H-indol-3-ylsulfanyl]-benzoic acid], the IC50 was less than 300 nM.

Turning to `Cc1c(Sc2cccc(C(=O)O)c2)c2ccc(-c3cccnc3)cc2n1Cc1ccccc1` [Compound 1-12, 3-(1-Benzyl-2-methyl-6-pyridin-3-yl-1H-indol-3-ylsulfanyl)-benzoic acid], the IC50 is greater than 1000 nM.

For `O=C(O)c1cccc(Sc2c(C(F)(F)F)[nH]c3cc(Cl)ccc23)c1` [Compound 3-7, 3-(6-Chloro-2-trifluoromethyl-1H-indol-3-ylsulfanyl)-benzoic acid], the IC50 is greater than 1000 nM.

Turning to `Cc1cc(-n2c(C)c(Sc3cccc(C(=O)O)c3)c3ccc(Cl)c(F)c32)cs1` [Compound 3-61, 3-[6-Chloro-7-fluoro-2-methyl-1-(5-methyl-thiophen-3-yl)-1H-indol-3-ylsulfanyl]-benzoic acid], the IC50 was less than 300 nM.

On to `Cc1nn(C)cc1-n1c(C)c(Sc2cccc(C(=O)O)c2)c2ccc(Cl)cc21` [Compound 1-60, 3-[6-Chloro-1-(1,3-dimethyl-1H-pyrazol-4-yl)-2-methyl-1H-indol-3-ylsulfanyl]-benzoic acid], for which the IC50 is less than 300 nM.

As for `Cc1c(Sc2cccc(C(=O)O)c2)c2ccc(Cl)c(F)c2n1-c1cn[nH]c1` [Compound 3-49, 3-[6-Chloro-7-fluoro-2-methyl-1-(1H-pyrazol-4-yl)-1H-indol-3-ylsulfanyl]-benzoic acid], the IC50 is less than 300 nM.

Consider `CCn1cc(-n2c(C)c(Sc3cccc(C(=O)O)c3)c3ccc(Cl)c(Cl)c32)cn1` [Compound 3-52, 3-[6,7-Dichloro-1-(1-ethyl-1H-pyrazol-4-yl)-2-methyl-1H-indol-3-ylsulfanyl]-benzoic acid], for which the IC50 is less than 300 nM.

`Cc1c(Sc2cccc(C(=O)O)c2)c2ccc(Cl)cc2n1-c1cnsc1` [Compound 1-42, 3-(6-Chloro-1-isothiazol-4-yl-2-methyl-1H-indol-3-ylsulfanyl)-benzoic acid]: the IC50 is less than 300 nM.

Take `Cc1c(Sc2cccc(C(=O)O)c2)c2ccc(Cl)cc2n1Cc1ccc(C(F)(F)F)nc1` [Compound 1-22, 3-[6-Chloro-2-methyl-1-(6-trifluoromethyl-pyridin-3-ylmethyl)-1H-indol-3-ylsulfanyl]-benzoic acid]: the IC50 was greater than 1000 nM.

Regarding `COc1ccc(C(=O)O)cc1Sc1c(C)n(-c2cnn(C)c2)c2cc(Cl)ccc12` [Compound 1-41, 3-[6-Chloro-2-methyl-1-(1-methyl-1H-pyrazol-4-yl)-1H-indol-3-ylsulfanyl]-4-methoxy-benzoic acid], the IC50 was greater than 1000 nM.

In the case of `Cc1c(Sc2cccc(C(=O)O)c2)c2ccc(Cl)c(F)c2n1-c1cnn(C(C)(C)C)c1` [Compound 3-60, 3-[1-(1-tert-Butyl-1H-pyrazol-4-yl)-6-chloro-7-fluoro-2-methyl-1H-indol-3-ylsulfanyl]-benzoic acid], the half-inhibitory concentration (IC50) was less than 300 nM.
